Laboratory results taken from a melting point compilation (Tetko et al.; mined from patent text by program, amines drawn as free bases though some values may be those of a salt).

melting point [°C]	SMILES
20 to 28	C=CCOc1cc2c(cc1CC=C)CCC(=O)N2CC=C(C)C
221 to 223	COc1cc(-c2ccc(O)c(C3(C)CCCCC3)c2)cc(CC2SC(N3CCOCC3)=NC2=O)c1O (stereo unspecified)
208 to 209	Cc1nc(-c2ccccc2)nc(-c2ccncc2)c1N
116	CCCCc1nn2ccccc2c1C(=O)c1ccccc1C#N
76 to 78	CCN(C1CC(C)(C)Oc2ccc(OCCO)cc21)S(C)(=O)=O (stereo unspecified)
228	Cc1ccc(-c2cc(-c3ccc(Cl)cc3)n[nH]2)cc1
233 to 235	Cc1cc(-c2ccc(Cl)cc2)nc2c(C(=O)O)cnn12
222	COC1CCN(c2cc3c(cc2C#Cc2ccccc2)NC(=O)CC(c2cccc(-n4ccnc4)c2)=N3)CC1
53 to 54	COc1cccc2c1CC(=O)CO2
176	O=C(NCc1ccc2c(c1)OCO2)c1ccc2[nH]c(=O)n(Cc3ccccc3)c(=O)c2c1
224	O=C1CCC(c2ccccc2)(c2ccccc2)[C@@H]2CN(C(=O)Cc3ccsc3)C[C@H]12 (racemic)
98 to 100	O=C(O)C=C1CCCCC1Cc1ccccc1 (racemic)
158 to 159	CN1CCN(c2ccc(F)cc2C=C2CCCN(c3ccc(Cl)cc3)C2=O)CC1
157	Cc1cn2c(=O)c(CCN3CCC(C(=O)c4ccc(F)cc4)CC3)cnc2n1Cc1ccccc1
137 to 139	CCOC(=O)N1CCN(C2=Nc3ccccc3Cc3nccn32)CC1
121 to 123	O=C(O)Cc1ccc(OCc2ccccc2)c(Cl)c1
145 to 147	CN(Cc1ccccc1)c1sc(-c2ccncc2)c2c1C(=O)CC2
140 to 143	COc1cc(OC)c(N2CCCC2)cc1/C=C/C(=O)c1ccc(S(=O)(=O)NCCCn2ccnc2)cc1
162	N#Cc1cc(N)ccc1N1CCN(C2CCOCC2)CC1
145 to 147	CC(C)c1c(/C=C/I)c(-c2ccc(F)cc2)nc2ccccc12

melting point [°C]	SMILES
162	CS(=O)(=O)c1ccc2c(c1)[C@@H](Oc1ccc(C#N)cc1Cl)[C@H](N1CCC[C@@H](N)C1)C2
158 to 160	CCCCn1c(=O)c(C(=O)O)c(-c2ccc(Br)cc2)c2cccnc21
250 to 251	COC(=O)c1cnc2c3cc(NC(=O)C4CCCCC4)ccc3ncn2c1=O
190	COc1ccccc1CC(=N)N1C[C@@H]2C(=O)CCC(c3ccccc3)(c3ccccc3)[C@@H]2C1
268 to 269	CCCNC(=O)c1ccc(-c2nc(=O)c3ccccc3s2)nc1
104 to 105	O=C(OCc1ccccc1)C1CCc2[nH]c3ccccc3c2C1 (stereo unspecified)
219 to 221	CC1(Cc2ccccc2)Cc2cc(O)c(Cl)c(Cl)c2C1=O (stereo unspecified)
269 to 272	O=S1(=O)c2ccccc2Nc2ccc(-c3ccccc3)cc21
147	O=C(c1nnc(-c2ccccc2)o1)N1CC(Oc2ccc(CN3CC(C(F)F)C3)cc2)C1
171 to 173	Cn1cc(C(=O)NCc2ccc(Cl)cc2)c(=O)c2cc(CN3CCOCC3)cc(C#CCC[C@@H]3COC(=O)N3)c21
173 to 174	COc1cc(OC)cc(-c2cc(=O)c3ccc(OCCCBr)cc3o2)c1
144 to 146	COc1ccc2ncccc2c1C1OC(=O)NC1=O (stereo unspecified)
133 to 136	COc1ccc([N+](=O)[O-])c(Oc2cc(C)[nH]n2)n1
32	Cc1cccc(-c2nc(CI)c(C)o2)c1
112 to 114	CC(=O)N1CCC(NC(=O)Nc2cccc(F)c2)CC1
178 to 180	C[Si](C)(c1ccccc1)C1CC(=O)c2c(nc3ccccc3c2N)C1 (stereo unspecified)
301 to 302	CC1(C)Cc2cc(C3=NNC(=O)C4CCC34)ccc2NC1=O (stereo unspecified)
198 to 199	O=C1CCC(c2ccc3c(c2)NCCO3)=NN1
216 to 217	CN(C#N)C1CN(C(=O)Nc2ccc(C(F)(F)F)cc2)N=C1c1ccc(Cl)cc1 (stereo unspecified)
114 to 117	CC(=O)N1CCC(n2nc(-c3c(-c4ccccc4)nn4ccccc34)ccc2=O)CC1

Further lines, the compound ahead of its results:

SMILES	melting point [°C]
CCCCc1nc2ccn(Cc3ccccc3C(=O)OCC)c(=O)c2n1Cc1ccc(-c2ccccc2-c2nnn[nH]2)cc1	203 to 204
Nc1ccc(OC23CC4CC(CC(C4)C2)C3)cc1	172 to 175
CC1OOC2CC1CC(=O)C2C (stereo unspecified)	160
Brc1cnc(SCc2ccccc2)nc1	68 to 69
CC(=O)Oc1ccc(CC2SC(=O)N(C(c3ccccc3)(c3ccccc3)c3ccccc3)C2=O)cc1 (stereo unspecified)	152 to 156
Oc1ccc(-c2nnc(-c3cccc(-c4nnc(-c5ccc(O)cc5)o4)c3)o2)cc1	> 400
CC(C)(C)OC(=O)[C@@H]1CS[C@H](c2cccc(O)c2)N1C(=O)CNC(=O)Nc1cccc(C(=O)O)c1	150
N#CC1=C(c2ccccc2)Nc2n[nH]cc2C1c1ccccc1[N+](=O)[O-] (stereo unspecified)	221
Cc1cc(C(=O)NC(CCC(=O)OC(C)(C)C)C(=O)O)ccc1-c1c2cc(F)c(=O)cc-2oc2cc(O)c(F)cc12 (stereo unspecified)	134 to 138
Cc1nc2c(C)cccn2c(=O)c1CCN1CC=C(c2c[nH]c3ccc(F)cc23)CC1	229 to 230
CC(CC(=O)O)(C(=O)O)c1ccc(F)cc1 (stereo unspecified)	149 to 152
Cc1cc(Cl)c([N+](=O)[O-])c(=O)[nH]1	225
CN(C)C=Nc1[nH]nc(NCCNC(=O)OC(C)(C)C)c1C#N	158 to 160
CC1(C(=O)CC#N)CC1	32 to 33
CSCC(C)(C)NC(=O)c1c(I)cccc1Oc1ncc(C(F)(F)F)cc1Cl	83 to 85
CC(CO)C1CCC2=C3C=CC4C(C)(C)C(OC(=O)c5ccccc5)CCC4(C)C3CCC21C (stereo unspecified)	218 to 220
CC(SC1COC(c2ccc(C(=O)Nc3ccc(Cl)cc3)cc2)OC1)C(O)(Cn1cncn1)c1ccc(F)cc1F (stereo unspecified)	210
Cc1nc(C#Cc2cncc(CO)c2)cs1	98 to 99
CCOC(=O)CC(C)(O)c1ccc(C2CCCCC2)cc1 (stereo unspecified)	45
CCOC(=O)C1=C(N)NC(c2ccccc2)=CC1c1cccc(Cl)c1 (stereo unspecified)	161
CSC(C)=NOC(=O)NCSN(P1OCC(C)(C)CO1)C(C)(C)C	167 to 168

SMILES	melting point [°C]
Oc1ccc(-c2ncc3ncc(-c4ccccc4O)cc3n2)cc1	278 to 279
C#CCCCOC(=O)NC(=O)C(c1ccccc1)c1ccccc1	109
C=CCN1CCC23CC(=O)CCC2(O)C1Cc1cccc(OC)c13 (stereo unspecified)	166 to 167
CN(C)Cc1nnc(CN2C(=O)c3ccccc3C2=O)n1-c1ccc(Cl)cc1C(=O)c1ccccc1	206 to 208
CCOC(=O)c1c([N+](=O)[O-])c(-c2ccc(Cl)cc2)n(OC)c1C(F)(F)F	90 to 92
CN(C(CCn1c(=O)cc(Cl)n(C)c1=O)C(=O)O)S(=O)(=O)c1ccc(Oc2ccccc2)cc1 (stereo unspecified)	115 to 117
CCC(=O)N[C@@H]1Cc2ccccc2N(OC)C1=O	98 to 99
CC12C=CC(=O)C=C1C(F)CC1C2=CCC2(C)C(C(=O)CCl)=CCC12 (stereo unspecified)	196 to 200
CC1C(=O)C2CCCCC2N2CCc3ccccc3C12 (stereo unspecified)	144 to 148
CC(=O)N(c1ccc(O)cc1)C(C)C	152 to 153
CC=CC(=O)N(CCCCC(=O)O)C(c1ccccc1)c1ccccc1	88 to 89
CCCCCC(O)CCCOC(=O)c1ccccc1 (stereo unspecified)	90 to 93
CC(=O)Nc1ccc(N2CCC(N(C)Cc3ccccc3)CC2)cc1	147
CC(C)(C)OC(=O)CCc1ccc(-c2nc(=O)c3ccccc3s2)nc1	160 to 161
O=C(O)C1=CCCN1C(=O)CCS	94 to 96
CCCc1c(O)c(O)c(C(=O)O)c2cc(C)c(C)cc12	170 to 172
NCc1cccc(O)c1	79 to 81
CC(=O)Nc1nc2c(Oc3cc(-c4ccc(C(F)(F)F)cc4NC(=O)[C@@H]4CCN4CC(C)C)ncn3)cccc2s1	174 to 175
CCCC(C)n1sc2ccccc2c1=O (stereo unspecified)	52 to 54
O=C(C(Cl)Cl)N1CCC2(CC1)OCCO2	102
CCOC(=O)C(C)(C)Oc1ccc(-c2ccc(CNC(=O)c3cc(Cl)ccc3OC)cc2)cc1	< 20

SMILES	melting point [°C]
COC(CN(C)C(=O)Nc1nnc(C(C)Oc2ccccc2Cl)s1)OC (stereo unspecified)	101 to 104
CC(C)C[C@H]1CN(Cc2ccccc2)C[C@@H]1C(=O)O	236 to 239
CCCCN(CCCC)Cc1cc(C(C)(C)C)cc(C(C)(C)C)c1O	33 to 35
CCCCc1cc2cc([N+](=O)[O-])ccc2n1C	77
C=CC(=O)c1ccc(O)cc1	99 to 103
O=C(N[C@@H](Cc1ccc(O)cc1)C(=O)O)C(=Cc1ccccc1)NC(=O)C(F)(F)F	165 to 175
Nc1nc(Cl)cc(OCC(O)CO)n1 (stereo unspecified)	175 to 177
Cc1cc(NCCO)c(N)c([N+](=O)[O-])c1	166
CCC(=O)OCC(=O)C1(OC(C)=O)CCC2C3CC(C)C4=CC(=O)CCC4(C)C3C(O)CC21C (stereo unspecified)	99 to 103
OC1(COc2ccccc2Cc2ccccc2)CN2CCC1CC2 (stereo unspecified)	71 to 73
N#CCC(CC#N)c1cccc(OCc2ccccc2)c1	140 to 143
CCCc1cc(C)c2oc(Cc3ccc(OC)cc3)c(C)c2c1O	102 to 104
Cn1c(CC(=O)O)ccc1C(=O)c1ccc(Cl)cc1Cl	165 to 166
Fc1ccc2ncc3ncn(-c4ccccc4F)c3c2c1	162 to 163
COC(=O)c1ccccc1NC(=O)c1c(-c2ccccc2)c(-c2ccc(F)cc2)c(C=O)n1C(C)C	222 to 223
OC(CCc1cccnc1)CSc1ccc(-c2ccccc2)cc1 (stereo unspecified)	128 to 130
O=C1O[C@@H]2C[C@@]1(O)C[C@H]1OC(c3ccccc3)O[C@@H]21 (stereo partly specified)	96 to 97
Cc1nc(C)c(Cl)c(NCc2nccc(OCCCCN3CCN(Cc4ccncc4)CC3)c2C)n1	157 to 158
Cc1ccc(-c2cc(C(=O)C=Cc3ccc(C(=O)O)cc3)cc(C(C)(C)C)c2OCc2ccccc2)cc1	208
